How the values were obtained:
[1] = test system: 14 DIV mouse hippocampal neurons; experiment: oAβ-induced spine loss: drebrin-positive spine density in cultured hippocampal neurons; assay type: cell-based; settings: oAβ 1 µM + inhibitor 24 h vs oAβ alone; NVS-PAK1-1 10 nM, NVS-PAK1-C 10 nM, AZ13705339 1 nM, G5555 5 nM
Experimental: (§1) For in vitro study, all animal procedures were conducted in accordance with the National Institutes of Health Guide for the Care and Use of Laboratory Animals using protocols approved by the institutional animal care and use committee at Stanford University. Timed pregnant C57BL/6 mice (Strain code: 027) were purchased from Charles River Laboratories and delivered on embryonic day 15 (E15), after which E16 embryos were used for primary hippocampal cultures. Primary embryonic mouse hippocampal neuron cultures were plated on poly‐D‐lysine‐coated (10 µg/mL) glass cover slips at 40,000 to 50,000 cells per well in 12‐well plates (Corning Life Sciences). Cells were seeded in plating medium DMEM/F12 supplemented with 10% fetal bovine serum and 1 × penicillin/streptomycin (PS) for 2 hours. Medium was then changed to B‐27 Plus Neuronal Culture System (Invitrogen) supplemented with PS, and 2 mM glutamine.
(§2) Immunofluorescence was performed as described previously.[24] Briefly, cultured hippocampal neurons were fixed in 4% formaldehyde for 20 minutes, permeabilized for 6 minutes in 80% ice‐cold methanol, and incubated with primary antibodies at 4°C overnight. Primary antibodies used were rabbit polyclonal MAP2 antibody for labeling dendrites (1:1000, #8707, Cell Signaling) and mouse monoclonal drebrin antibody for labeling dendritic spines (1:300; Cat#ADI‐NBA‐110, Enzo). Secondary antibodies consisted of donkey antirabbit or antimouse conjugated with either FITC or Cy3 (1:400; Jackson ImmunoResearch Laboratories, Inc.).
(§3) The cultured hippocampal neurons were imaged using an oil‐based 63x objective on a Leica Stellaris 5 confocal microscope. The cell nucleus was stained with DAPI and imaged at a wavelength of 405 nm (blue channel), the dendrites stained by MAP2 were imaged at 488 nm wavelength (green channel), and the drebrin‐stained spines were imaged at a wavelength of 561 nm (red channel). Z‐stack images of neurons were acquired at a 1024 × 1024 resolution, a zoom factor of 1.0, and a z‐step size of 0.5 µm. The number of steps for every z‐stack picture of a neuron were determined by the size of the neuron in the z‐plane, to ensure that the entirety of a neuron is captured in the picture. The areas to be imaged were selected systematically, starting from the top‐left region to proceeding to the bottom‐right region of a coverslip. For imaging, preference was given to field of views containing isolated neurons versus clustered neurons.
For quantification of drebrin‐positive spines in vitro, the images were analyzed using Imaris 9.3 software. Each image consisted of one major neuron and the “filaments” option in Imaris was applied to manually trace along the dendrites of every neuron, by placing starting and seed points at the beginning and along the length of the dendrites, respectively. The largest dendrite diameter (i.e., Starting Point) was set at 9.00 µm threshold while the thinnest dendrite diameter (i.e., Seed Point) was set at 1.00 µm threshold. After manually tracing the dendrites, the spines along the dendrites were assessed using the automatic “spine detection” function in Imaris. […] The spine density (number of spines/dendrite length) was then calculated for each neuron. All image acquisition and quantification were performed in a blind manner. For in vitro quantification of dendrite degeneration, Neurolucida (MBF Biosciences) in the manual mode was used to measure the total dendritic length, numbers of dendrites, and dendritic complexity for each neuron.

[2] = test system: 14 DIV mouse hippocampal neurons; experiment: oTau-induced spine loss: drebrin-positive spine density in cultured hippocampal neurons; assay type: cell-based; settings: oTau 50 nM + inhibitor 24 h vs oTau alone; NVS-PAK1-1 10 nM, NVS-PAK1-C 10 nM, AZ13705339 1 nM, G5555 5 nM
Experimental: as §1, §2
The cultured hippocampal neurons were imaged using an oil‐based 63x objective on a Leica Stellaris 5 confocal microscope. The cell nucleus was stained with DAPI and imaged at a wavelength of 405 nm (blue channel), the dendrites stained by MAP2 were imaged at 488 nm wavelength (green channel), and the drebrin‐stained spines were imaged at a wavelength of 561 nm (red channel). […] The number of steps for every z‐stack picture of a neuron were determined by the size of the neuron in the z‐plane, to ensure that the entirety of a neuron is captured in the picture. […]
For quantification of drebrin‐positive spines in vitro, the images were analyzed using Imaris 9.3 software. […] After manually tracing the dendrites, the spines along the dendrites were assessed using the automatic “spine detection” function in Imaris. […] The spine density (number of spines/dendrite length) was then calculated for each neuron. All image acquisition and quantification were performed in a blind manner. For in vitro quantification of dendrite degeneration, Neurolucida (MBF Biosciences) in the manual mode was used to measure the total dendritic length, numbers of dendrites, and dendritic complexity for each neuron.

[3] = test system: 14 DIV hippocampal neurons; experiment: oAβ-induced dendrite degeneration (MAP2 dendrite length, number, complexity) in cultured hippocampal neurons; assay type: cell-based, mouse; settings: oAβ 1 µM + inhibitor 24 h vs oAβ alone, NVS-PAK1-1 10 nM, AZ 1 nM, G 5 nM; for total dendrite length per neuron: PAK1-C 10 nM
Experimental: as §1, §2, §3
(§4) For quantification of drebrin‐positive spines in vitro, the images were analyzed using Imaris 9.3 software. Each image consisted of one major neuron and the “filaments” option in Imaris was applied to manually trace along the dendrites of every neuron, by placing starting and seed points at the beginning and along the length of the dendrites, respectively. The largest dendrite diameter (i.e., Starting Point) was set at 9.00 µm threshold while the thinnest dendrite diameter (i.e., Seed Point) was set at 1.00 µm threshold. After manually tracing the dendrites, the spines along the dendrites were assessed using the automatic “spine detection” function in Imaris. The thinnest spine diameter was set at 0.80 µm threshold while the maximum spine length was set at 5.00 µm. The spine density (number of spines/dendrite length) was then calculated for each neuron. All image acquisition and quantification were performed in a blind manner. For in vitro quantification of dendrite degeneration, Neurolucida (MBF Biosciences) in the manual mode was used to measure the total dendritic length, numbers of dendrites, and dendritic complexity for each neuron.

[4] = test system: 14 DIV hippocampal neurons; experiment: oTau-induced dendrite degeneration (MAP2 dendrite length, number) in cultured hippocampal neurons; assay type: cell-based, mouse; settings: oTau 50 nM + inhibitor 24 h vs oTau alone, NVS-PAK1-1 10 nM, AZ 1 nM, G 5 nM; for total dendrite length per neuron: PAK1-C 10 nM
Experimental: as §1, §2, §3, §4

[5] = test system: kinome; broad panel of proteases, receptors, and bromodomains; settings: cited from earlier work

| SMILES | drebrin-stained spine density (spine counts per µm of dendritic length) [1] | drebrin-stained spine density (spine counts per µm of dendritic length) [2] | dendrite number per neuron [3] | total dendrite length per neuron [3] | dendrite number per neuron [4] | total dendrite length per neuron [4] | off-target kinase inhibition [5] |
| --- | --- | --- | --- | --- | --- | --- | --- |
| CNc1ncc2cc(-c3ccc(-c4cccc(C)n4)cc3Cl)c(=O)n(C[C@H]3OC[C@H](N)CO3)c2n1 [G5555] | significantly higher spine counts | significantly higher spine counts | significantly increased dendrite number per neuron | Neither G nor PAK1‐C showed a significant dendrite length difference | significantly increased dendrite number per neuron | Neither G nor PAK1‐C showed a significant dendrite length difference | inhibit off‐target kinases |
| CCS(=O)(=O)c1cc(Nc2ncc(F)c(N(Cc3ccccc3C#N)c3cc(CO)ccc3C)n2)ccc1N1CCN(C)CC1 [AZ13705339] | significantly higher spine counts | significantly higher spine counts | significantly increased dendrite number per neuron | preserved dendrite length | significantly increased dendrite number per neuron | preserved dendrite length | inhibit off‐target kinases |
| CN(C)C(=O)N1CC[C@H](N=C2Nc3cc(F)ccc3N(CC(F)F)c3ccc(Cl)cc32)C1 [NVS‐PAK1‐C] | not reflected | not reflected | – | Neither G nor PAK1‐C showed a significant dendrite length difference | – | Neither G nor PAK1‐C showed a significant dendrite length difference | – |

Source: paper PMC12741935 (Alzheimer's & Dementia, 2025)
